Laboratory results taken from ChEMBL document CHEMBL3232945 (Eur J Med Chem, 2014).

Key:
[1] = tested on: Rattus norvegicus; assay: Toxicity in […] normotensive Wistar rat assessed as mean arterial pressure at 40 mg/kg, ip after 60 mins (reference value: 95.07 +/- 1.973 mmHg); format: organism-based, Artery; design: dose 40 mg/kg, route intraperitoneal; details: in vivo, 1 h
[2] = tested on: Rattus norvegicus; assay: Antihypertensive activity in Wistar rat assessed as mean arterial pressure at 40 mg/kg, ip measured immediately at 0 min (reference value: 194.08 +/- 1.962 mmHg); format: functional, Artery; details: route intraperitoneal
[3] = tested on: Rattus norvegicus; assay: Antihypertensive activity in Wistar rat assessed as mean arterial pressure at 40 mg/kg, ip after 15 mins (reference value: 195.68 +/- 1.623 mmHg); format: functional, Artery; details: route intraperitoneal
[4] = tested on: Rattus norvegicus; assay: Antihypertensive activity in Wistar rat assessed as mean arterial pressure at 40 mg/kg, ip after 30 mins (reference value: 194.72 +/- 1.002 mmHg); format: functional, Artery; details: route intraperitoneal
[5] = tested on: Rattus norvegicus; assay: Antihypertensive activity in Wistar rat assessed as mean arterial pressure at 40 mg/kg, ip after 45 mins (reference value: 193.96 +/- 0.865 mmHg); format: functional, Artery; details: route intraperitoneal
[6] = tested on: Rattus norvegicus; assay: Antihypertensive activity in Wistar rat assessed as mean arterial pressure at 40 mg/kg, ip after 60 mins (reference value: 195.11 +/- 0.531 mmHg); format: functional, Artery; details: route intraperitoneal
[7] = tested on: Rattus norvegicus; assay: Toxicity in anesthetized-normotensive Wistar rat assessed as heart rate at 40 mg/kg, ip measured immediately at 0 min (reference value: 316.62 +/- 9.643 bpm); format: organism-based; design: dose 40 mg/kg, route intraperitoneal; details: in vivo, 0 h
[8] = tested on: Rattus norvegicus; assay: Toxicity in anesthetized-normotensive Wistar rat assessed as heart rate at 40 mg/kg, ip after 15 mins (reference value: 313.93 +/- 9.912 bpm); format: organism-based; design: dose 40 mg/kg, route intraperitoneal; details: in vivo, 0.25 h
[9] = tested on: Rattus norvegicus; assay: Toxicity in anesthetized-normotensive Wistar rat assessed as heart rate at 40 mg/kg, ip after 30 mins (reference value: 317.68 +/- 7.631 bpm); format: organism-based; design: dose 40 mg/kg, route intraperitoneal; details: in vivo, 0.5 h
[10] = tested on: Rattus norvegicus; assay: Toxicity in anesthetized-normotensive Wistar rat assessed as heart rate at 40 mg/kg, ip after 45 mins (reference value: 316.82 +/- 8.452 bpm); format: organism-based; design: dose 40 mg/kg, route intraperitoneal; details: in vivo, 0.75 h
[11] = tested on: Rattus norvegicus; assay: Toxicity in anesthetized-normotensive Wistar rat assessed as heart rate at 40 mg/kg, ip after 60 mins (reference value: 314.96 +/- 9.442 bpm); format: organism-based; design: dose 40 mg/kg, route intraperitoneal; details: in vivo, 1 h
[12] = tested on: Rattus norvegicus; assay: Antiarrhythmic activity in barium chloride-induced Wistar rat assessed as increase in appearance time of arrhythmia at 40 mg/kg, ip administered 60 mins before barium chloride challenge (reference value: 129.4 +/- 4.373 sec); format: functional, Heart; details: route intraperitoneal
[13] = tested on: Rattus norvegicus; assay: Antiarrhythmic activity in barium chloride-induced Wistar rat assessed as increase in mortality time at 40 mg/kg, ip administered 60 mins before barium chloride challenge (reference value: 682.8 +/- 9.656 secs); format: functional, Heart; details: route intraperitoneal
[14] = tested on: Rattus norvegicus; assay: Toxicity in anaesthetized-Wistar rat assessed as P-Q ECG interval at 40 mg/kg, ip measured immediately at 0 min (reference value: 52.4 +/- 0.927 ms); format: organism-based; design: dose 40 mg/kg, route intraperitoneal; details: in vivo, 0 h
[15] = tested on: Rattus norvegicus; assay: Toxicity in anaesthetized-Wistar rat assessed as QRS ECG interval at 40 mg/kg, ip measured immediately at 0 min (reference value: 19.6 +/- 1.142 ms); format: organism-based; design: dose 40 mg/kg, route intraperitoneal; details: in vivo, 0 h
[16] = tested on: Rattus norvegicus; assay: Toxicity in anaesthetized-Wistar rat assessed as Q-T ECG interval at 40 mg/kg, ip measured immediately at 0 min (reference value: 78.8 +/- 1.030 ms); format: organism-based; design: dose 40 mg/kg, route intraperitoneal; details: in vivo, 0 h
[17] = tested on: Rattus norvegicus; assay: Toxicity in anaesthetized-Wistar rat assessed as P-Q ECG interval at 40 mg/kg, ip after 15 mins (reference value: 52.2 +/- 1.158 ms); format: organism-based; design: dose 40 mg/kg, route intraperitoneal; details: in vivo, 0.25 h
[18] = tested on: Rattus norvegicus; assay: Toxicity in anaesthetized-Wistar rat assessed as QRS ECG interval at 40 mg/kg, ip after 15 mins (reference value: 18.9 +/- 1.563 ms); format: organism-based; design: dose 40 mg/kg, route intraperitoneal; details: in vivo, 0.25 h
[19] = tested on: Rattus norvegicus; assay: Toxicity in anaesthetized-Wistar rat assessed as Q-T ECG interval at 40 mg/kg, ip after 15 mins (reference value: 79.4 +/- 1.270 ms); format: organism-based; design: dose 40 mg/kg, route intraperitoneal; details: in vivo, 0.25 h
[20] = tested on: Rattus norvegicus; assay: Toxicity in anaesthetized-Wistar rat assessed as P-Q ECG interval at 40 mg/kg, ip after 30 mins (reference value: […] +/- 0.927 ms); format: organism-based; design: dose 40 mg/kg, route intraperitoneal; details: in vivo, 0.5 h
[21] = tested on: Rattus norvegicus; assay: Toxicity in anaesthetized-Wistar rat assessed as QRS ECG interval at 40 mg/kg, ip after 30 mins (reference value: 19.9 +/- 1.393 ms); format: organism-based; design: dose 40 mg/kg, route intraperitoneal; details: in vivo, 0.5 h
[22] = tested on: Rattus norvegicus; assay: Toxicity in anaesthetized-Wistar rat assessed as Q-T ECG interval at 40 mg/kg, ip after 30 mins (reference value: 78.3 +/- 0.860 ms); format: organism-based; design: dose 40 mg/kg, route intraperitoneal; details: in vivo, 0.5 h
[23] = tested on: Rattus norvegicus; assay: Toxicity in anaesthetized-Wistar rat assessed as P-Q ECG interval at 40 mg/kg, ip after 45 mins (reference value: 52.5 +/- 0.780 ms); format: organism-based; design: dose 40 mg/kg, route intraperitoneal; details: in vivo, 0.75 h
[24] = tested on: Rattus norvegicus; assay: Toxicity in anaesthetized-Wistar rat assessed as QRS ECG interval at 40 mg/kg, ip after 45 mins (reference value: 20.2 +/- 1.348 ms); format: organism-based; design: dose 40 mg/kg, route intraperitoneal; details: in vivo, 0.75 h
[25] = tested on: Rattus norvegicus; assay: Toxicity in anaesthetized-Wistar rat assessed as Q-T ECG interval at 40 mg/kg, ip after 45 mins (reference value: 78.8 +/- 0.927 ms); format: organism-based; design: dose 40 mg/kg, route intraperitoneal; details: in vivo, 0.75 h
[26] = tested on: Rattus norvegicus; assay: Toxicity in anaesthetized-Wistar rat assessed as P-Q ECG interval at 40 mg/kg, ip after 60 mins (reference value: […] +/- 0.924 ms); format: organism-based; design: dose 40 mg/kg, route intraperitoneal; details: in vivo, 1 h
[27] = tested on: Rattus norvegicus; assay: Toxicity in anaesthetized-Wistar rat assessed as QRS ECG interval at 40 mg/kg, ip after 60 mins (reference value: 19.3 +/- 0.873 ms); format: organism-based; design: dose 40 mg/kg, route intraperitoneal; details: in vivo, 1 h
[28] = tested on: Rattus norvegicus; assay: Toxicity in anaesthetized-Wistar rat assessed as Q-T ECG interval at 40 mg/kg, ip after 60 mins (reference value: 79.7 +/- 0.965 ms); format: organism-based; design: dose 40 mg/kg, route intraperitoneal; details: in vivo, 1 h
[29] = tested on: Rattus norvegicus; assay: Toxicity in […] normotensive Wistar rat assessed as mean arterial pressure at 40 mg/kg, ip measured immediately at 0 min (reference value: 94.21 +/- 2.065 mmHg); format: organism-based, Artery; design: dose 40 mg/kg, route intraperitoneal; details: in vivo, 0 h
[30] = tested on: Rattus norvegicus; assay: Toxicity in […] normotensive Wistar rat assessed as mean arterial pressure at 40 mg/kg, ip after 15 mins (reference value: 93.81 +/- 1.543 mmHg); format: organism-based, Artery; design: dose 40 mg/kg, route intraperitoneal; details: in vivo, 0.25 h
[31] = tested on: Rattus norvegicus; assay: Toxicity in […] normotensive Wistar rat assessed as mean arterial pressure at 40 mg/kg, ip after 30 mins (reference value: 94.68 +/- 1.213 mmHg); format: organism-based, Artery; design: dose 40 mg/kg, route intraperitoneal; details: in vivo, 0.5 h
[32] = tested on: Rattus norvegicus; assay: Toxicity in […] normotensive Wistar rat assessed as mean arterial pressure at 40 mg/kg, ip after 45 mins (reference value: 94.83 +/- 0.943 mmHg); format: organism-based, Artery; design: dose 40 mg/kg, route intraperitoneal; details: in vivo, 0.75 h

## O=C1/C(=C\c2ccccc2)S/C(=N\c2ccccc2)N1CC(O)CN1CCNCC1 (centres undefined)
[1]
  Activity: 70.27 mmHg
[2]
  Activity: 196.63 mmHg
[3]
  Activity: 176.65 mmHg
[4]
  Activity: 153.16 mmHg
[5]
  Activity: 128.32 mmHg
[6]
  Activity: 159.08 mmHg
[7]
  Activity: 302.12 bpm
[8]
  Activity: 292.46 bpm
[9]
  Activity: 259.31 bpm
[10]
  Activity: 269.73 bpm
[11]
  Activity: 298.12 bpm
[12]
  Time: 379.7 s
[13]
  Time: 1380.5 s
[14]
  Activity: 54.3 ms
[15]
  Activity: 20.8 min
[16]
  Activity: 80.2 min
[17]
  Activity: 54.7 min
[18]
  Activity: 21.6 min
[19]
  Activity: 80.6 min
[20]
  Activity: 56.4 min
[21]
  Activity: 23.8 ms
[22]
  Activity: 81.8 min
[23]
  Activity: 56.9 min
[24]
  Activity: 23.7 min
[25]
  Activity: 82.4 min
[26]
  Activity: 55.1 min
[27]
  Activity: 22.4 min
[28]
  Activity: 82.1 ms
[29]
  Activity: 92.33 mmHg
[30]
  Activity: 78.76 mmHg
[31]
  Activity: 62.26 mmHg
[32]
  Activity: 62.53 mmHg

## CC(C)N1CCN(CC(O)CN2C(=O)/C(=C\c3ccccc3)S/C2=N\c2ccccc2)CC1 (centres undefined)
[1]
  Activity: 76.27 mmHg
[2]
  Activity: 193.37 mmHg
[3]
  Activity: 185.53 mmHg
[4]
  Activity: 161.56 mmHg
[5]
  Activity: 146.51 mmHg
[6]
  Activity: 160.84 mmHg
[7]
  Activity: 310.34 bpm
[8]
  Activity: 298.46 bpm
[9]
  Activity: 272.41 bpm
[10]
  Activity: 253.26 bpm
[11]
  Activity: 302.92 bpm
[12]
  Time: 354.8 s
[13]
  Time: 1213.7 s
[14]
  Activity: 53.5 ms
[15]
  Activity: 23.3 min
[16]
  Activity: 76 min
[17]
  Activity: 53.9 min
[18]
  Activity: 23.7 min
[19]
  Activity: 76.2 min
[20]
  Activity: 54.1 min
[21]
  Activity: 24.1 ms
[22]
  Activity: 76.6 min
[23]
  Activity: 55.2 min
[24]
  Activity: 24.6 min
[25]
  Activity: 77.1 min
[26]
  Activity: 55.6 min
[27]
  Activity: 24.8 min
[28]
  Activity: 77.4 ms
[29]
  Activity: 92.09 mmHg
[30]
  Activity: 79.32 mmHg
[31]
  Activity: 62.08 mmHg
[32]
  Activity: 65.43 mmHg
